Results published in patent US20190125822A1, “COMPOSITION FOR IMPROVING OR PREVENTING NONALCOHOLIC FATTY LIVER” (KOHJIN LIFE SCIENCES CO., LTD., priority 2015, published 2019).

Tests used:
[1] = tested on: subjects who had NAFLD in 31 IU/L or more of ALT; conditions: 300 mg per day oral
[2] = tested on: Mice (C57/B6J) fed with high-fat food; conditions: 20 weeks old
Excerpt: Mice (C57/B6J, 8 weeks old male) were divided into 4 groups (5 animals each), and the first group (DB) was freely fed with ordinary food (CertifiedDiet “MF” manufactured by Oriental Yeast Co., ltd.). The second group (HFD) was freely fed with high-fat food (High Fat Diet 32, manufactured by CLEA Japan, Inc.), […].
When the mouse was 20 weeks old, the body weight, the liver weight, the serum aspartate aminotransferase (AST), the alanine aminotransferase (ALT), the serum triglyceride (TG), the free fatty acid value (FFA) and the total cholesterol value (T-cho) were measured.

[3] = HFD6 and HFD60 groups in comparison to HFD group
[4] = high-fat food, glutathione 6 and 60 mg/kg/day in water

Structure (SMILES): N[C@@H](CCC(=O)N[C@@H](CS)C(=O)NCC(=O)O)C(=O)O [glutathione]
- FibroScan (after treatment) CAP ([1]; after treatment, individual subject per table row): 280 dBe
- improvement of ALT after administration in comparison to ALT before the administration (0 wk) ([1]; Case IDs 1 to 9 of 16 subjects, at any week after initiation): ≥ 20%
- FFA (free fatty acid value) [2, 3]: significant decrease
- T-cho (total cholesterol value) [2, 3]: significant decrease
- liver weight [2, 4]: decreased dependently on the concentration
- ratio of liver weight/body weight [2, 4]: decrease of the body weight ratio was also recognized
- body weight ([2]; high-fat food, glutathione 6 or 60 mg/kg/day in water): decrease of the body weight was recognized
- TG (triglyceride value) ([2]; serum, HFD6 and HFD60 groups in comparison to HFD group): significant decrease
